Results reported in US20260137711A1, “COMBINATION THERAPY FOR CANCER” (NATIONAL UNIVERSITY OF IRELAND, GALWAY, priority 2022, published 2026).

How the values were obtained:
Type in all cases: cell-based, human
[1] = system: MCF10A cells; assay: Flow cytometry of cell cycle distribution and DNA synthesis (EdU/DAPI)
Experimental: (c) A typical profile obtained by flow cytometry of MCF10A cells labelled with EdU and DAPI that indicates the gating applied in order to determine the percentage of cells with sub-G1 DNA content (sub-G1), G1 cells (G1), replicating early-mid S phase cells (Early-Mid S/EdU+), replicating mid-late S phase cells (Mid-Late S/EdU+), cells with S phase DNA content but not replicating (2n<& <4n/EdU−), and cells either in G2 or mitosis (G2/M).(d-f) MCF10A cells were mock treated or treated with 10 μM XL413, in the presence or absence of increasing concentrations of the CDK8 inhibitor BI-1347, for 24 hours. (d) Cells were labelled with EdU for last 30 minutes and DNA synthesis, DNA content and cell cycle distribution were assessed by flow cytometry and analysed using the gating strategy described in above (FIG. 2c). (e) Distribution of cells in the cell cycle. (f) Fluorescence intensity, proportional to EdU incorporation, in individual S phase cells. Long and short horizontal black lines indicate the median and the interquartile range, respectively, extending from the 25th to the 75th percentile for ˜3,810 cells for each condition. Data is from a single experiment.
FIG. 3: CDK8 activity is required for efficient DNA synthesis under conditions of limited CDC7 kinase activity (a-c) MCF10A cells were mock treated or treated with 31 nM BI-1347, in the presence or absence of increasing concentrations of the CDC7 inhibitors, XL413 (a-c) and TAK-931 (d-f), for 24 hours. (a and d) Cells were labelled with EdU for last 30 minutes and DNA synthesis, DNA content and cell cycle distribution were assessed by flow cytometry and analysed using the gating strategy described in FIG. 2c.c (b and e) distribution of cells in the cell cycle. (c and f) Fluorescence intensity, proportional to EdU incorporation, in individual S phase cells. Long and short horizontal black lines indicate the median and the interquartile range, respectively, extending from the 25th to the 75th percentile for ˜4,190 cells for each condition. Data is from a single experiment.
To analyse the cell cycle and DNA synthesis, nascent DNA was labelled by incubating cells with 10 μM EdU for either 20 or 30 minutes prior to harvest, washing with PBS, and then by resuspension in PBS containing 70% EtOH for 1 hour at −20° C. After a PBS wash, incorporated EdU was labelled by incubating cells in click reaction buffer (PBS containing 10 μM 6-Carboxyfluorescine-TEG-azide, 10 mM Sodium-L-ascorbate, 2 mM Copper-II-Sulphate) for 30 minutes protected from light. Cells were washed in PBS containing 1% BSA, 5% Tween 20 and then DNA stained in PBS containing 1% BSA and 1 μg/ml DAPI. All washes involve: centrifugation at 400×g for 5 minutes, removal of supernatant from pellet, resuspension in the appropriate buffer, recentrifugation and removal of supernatant from the pellet prior to the next step.
Fluorescence intensity data for 6-Carboxyfluorescine (488_530_30 nm) and DAPI (405_450_50 nm) were acquired for 10,000 single cells on a BD FACS Canto II and analysed using FlowJo software. To further analyse fluorescence intensity, proportional to EdU incorporation, for individual cells, gates were applied on DAPI-EdU biparametric dot plots to select for EdU positive S phase cells using FlowJo. According to the required analysis these gates included either all S phase cells, or only early or late S phase cells. Fluorescence intensity (488_530_30) values per cell were exported and plotted as scatter dot plots using GraphPad prism. For comparisons of mean fluorescence intensity of a cell population across three biological repeat experiments, all fluorescence intensity values were normalised to the maximum fluorescence intensity of the untreated control sample of each respective experiment to account for absolute differences in EdU staining. […]

[2] = system: MCF10A cells; assay: Long-term cell proliferation assay, crystal violet staining; conditions: 31 nM BI-1347 alone, 7 days, compared to controls
Experimental: (a and b) MCF10A cells were plated at equal low density and then either mock treated or treated with 31 nM BI-1347, in the presence or absence of XL413 at a doses of (a) 1.25 μM or (b) 10 μM over a 7 day period. Representative images of crystal violet-stained cells are shown alongside quantitation of crystal violet intensity normalised to the untreated control.
Briefly, MCF10A cells were mock-treated or treated in the continued presence of a dual-specificity CDK8/CDK19 inhibitor, BI-1347, in the presence or absence of XL413 at two different concentrations (1.25 μM and 10 μM) for a 7-day period. Relative cell proliferation was estimated by staining cells with crystal violet and measuring staining intensities. […] Importantly the addition of BI-1347 to XL413 caused a further reduction in cell number with staining intensity decreasing by 70% and 95% respectively.
MCF10A cells were seeded at 4,000 cells per well of a 6 well plate and after 24 hours were treated with inhibitors before being incubated for 7 days at 37° C. with 5% CO2. Media was removed from the cells which were then washed with PBS and air dried before being fixed with 100% methanol for 1 hour. Following removal of methanol the plates were air-dried, stained with crystal violet staining solution (0.2% crystal violet, 25% methanol) for 1 hour at room temperature, washed with ddH2O and air-dried. Plates were scanned using a HP Scanjet 4050, to generate images of crystal violet stained cells, and crystal violet staining intensity was acquired using the Odyssey infrared imaging system and Image Studio software (LI-COR Biosciences).

[3] = system: U-2 OS; assay: Flow cytometry of cell cycle distribution and DNA synthesis (EdU/DAPI); conditions: 31 nM BI-1347 with 1.25 μM XL413, 24 hours
Experimental: (§1) Supplemental FIG. 3: Characteristic phenotypes associated with inhibition of CDC7 and CDK8 are observed in multiple cell lines A panel of different cell lines, including: MDA-MB-468 (a-c); MDA-MB-231 (d-f); and U-2 OS (g-i), were mock treated or treated with 1.25 μM XL413 and/or 31 nM BI-1347BI-1347 for 24 hours. Cells were labelled with EdU for last 30 minutes and DNA synthesis, DNA content and cell cycle distribution were assessed by flow cytometry and analysed using the gating strategy described in FIG. 2c. (b, e and h) distribution of cells in the cell cycle. (c, f and i) Fluorescence intensity, proportional to EdU incorporation, in individual S phase cells. Long and short horizontal black lines indicate the median and the interquartile range, respectively, extending from the 25th to the 75th percentile for ˜3,922 (MDA-MB-468), ˜3,291 (MDA-MB-231), and ˜4,628 (U-2 OS) cells for each condition. Data is from a representative experiment from 3 biological repeats. […]
(§2) Fluorescence intensity data for 6-Carboxyfluorescine (488_530_30 nm) and DAPI (405_450_50 nm) were acquired for 10,000 single cells on a BD FACS Canto II and analysed using FlowJo software. To further analyse fluorescence intensity, proportional to EdU incorporation, for individual cells, gates were applied on DAPI-EdU biparametric dot plots to select for EdU positive S phase cells using FlowJo. […] Fluorescence intensity (488_530_30) values per cell were exported and plotted as scatter dot plots using GraphPad prism. For comparisons of mean fluorescence intensity of a cell population across three biological repeat experiments, all fluorescence intensity values were normalised to the maximum fluorescence intensity of the untreated control sample of each respective experiment to account for absolute differences in EdU staining. The mean fluorescence intensity values of these cell populations across three biological repeat experiments are expressed as a ratio relative to a control sample and plotted as a scatter dot plot using GraphPad prism.

[4] = system: MDA-MB-231; assay: as above; conditions: 31 nM BI-1347 with 1.25 μM XL413, 24 hours
Experimental: as §1, §2

[5] = system: MDA-MB-468; assay: as above; conditions: 31 nM BI-1347 with 1.25 μM XL413, 24 hours
Experimental: as §1, §2

[6] = BI-1347 alone at increasing concentrations, 24 hours
[7] = CDC7 inhibitor alone at increasing concentrations, absence of CDK8/CDK19i, 24 hours
[8] = CDC7 inhibitor at increasing concentrations together with the CDK8/CDK19 inhibitor (31 nM BI-1347), 24 hours, all doses tested

SMILES | cell cycle distribution [1, 6] | rate of DNA synthesis in S phase cells [1, 6] | increase in the potency of the CDC7 inhibitor in replication assays ([1]; BI-1347 in combination with CDC7 inhibitors, decrease in rate of DNA synthesis) | decrease in the relative staining intensity (crystal violet) [2] | potentiation of cell cycle and DNA replication phenotypes imposed by CDC7 inhibition [3] | potentiation of cell cycle and DNA replication phenotypes imposed by CDC7 inhibition [4] | potentiation of cell cycle and DNA replication phenotypes imposed by CDC7 inhibition [5] | cell cycle distribution [1, 7] | rate of DNA synthesis of S phase cells [1, 7] | cell cycle distribution [1, 8] | rate of DNA synthesis [1, 8]
CN(C)C(=O)Cn1ccc(-c2ccc(-c3cncc4ccccc34)cc2)c1 [BI-1347] | dose-dependent increase in G1 phase cells with a corresponding decrease in early-mid S phase cells | subtle and dose-independent decrease | ~10 fold | approximately 30% | strong potentiation | strong potentiation | strong potentiation | – | – | – | –
Cc1n[nH]cc1-c1cc2[nH]c([C@@H]3CC4CCN3CC4)nc(=O)c2s1 [TAK-931] | – | – | – | – | – | – | – | dose-dependent accumulation of mid-late S phase cells | corresponding decrease | more pronounced accumulation of cells in mid-late S phase | much more profound decrease
